Test results taken from publication PMC11578313, “Miniaturized Modular Click Chemistry‐enabled Rapid Discovery of Unique SARS‐CoV‐2 M^pro Inhibitors With Robust Potency and Drug‐like Profile” (Advanced Science, 2024).
Like-named read-outs stand apart in the source and are kept apart here.

Experiments:
SARS‐CoV‐2 M^pro [1] = target: T1, SARS‐CoV‐2 M^pro (Severe acute respiratory syndrome coronavirus 2, UniProt P0DTD1); test: SARS‐CoV‐2 main protease enzymatic assay (FRET inhibitor screening kit); assay type: biochemical
SARS‐CoV‐2 M^pro [2] = target: T1, SARS‐CoV‐2 M^pro; test: biochemical; settings: reported K M value and Cheng‐Prusoff equation
[3] = test system: SARS‐CoV‐2 (hCoV‐19/Korea/KCDC06/2020, wild type); test: microbe, parasite or virus in culture; assay type: cell-based
[4] = test system: SARS‐CoV‐2 Omicron (hCoV‐19/Korea/KDCA447321/2021); test: microbe, parasite or virus in culture; assay type: cell-based; settings: Severe acute respiratory syndrome coronavirus 2, Calu-3, read-out: EC50 ± SD, SARS‐CoV‐2 Omicron
HCoV‐NL63 = test: microbe, parasite or virus in culture; assay type: cell-based; settings: Human coronavirus NL63, LLC-MK2, read-out: EC50 ± SD, HCoV‐NL63
[5] = test system: SARS‐CoV‐2 S and N proteins; assay type: cell-based
SARS‐CoV‐2 viral RNA = assay type: cell-based
Kunming mice [6] = test: Acute toxicity experiment; assay type: in vivo
Description: (§1) The acute and subacute toxicity of C5N17B were assessed in Kunming mice. In the acute toxicity study, one group received an oral dose of 500 mg kg^−1 of C5N17B. In the subacute toxicity study, a different group was administered a lower dose of 50 mg kg^−1 of C5N17B. Each experimental set included a control group that received only the vehicle treatment.
(§2) Kunming mice were group housed both during acclimation and the study period. The animal room environment was controlled to maintain specific target conditions, including a temperature range of 20 °C to 25 °C, relative humidity levels between 40% and 70%, and an alternating schedule of artificial light for 12 h followed by 12 h of darkness. The age of Kunming mice in the acute/subacute toxicity study was 3–4 weeks, and the body weights were ≈20 g. All animal experiments related to this study were approved by the ethics committee of Cheeloo College of Medicine (approval No. 230014), Shandong University (Jinan, China) Procedures performed in the studies were guided by the ethical standards of the institution.
A group of Kunming mice (comprising three males and three females) was supplied by the Animal Experimental Center of Shandong University. […]

Kunming mice [7] = test: Subacute toxicity experiment; assay type: in vivo
Description: as §1, §2
A group of Kunming mice (comprising three males and three females) was supplied by the Animal Experimental Center of Shandong University. The mice underwent a 12 h fasting period, followed by oral administration of a suspension containing C5N17B in 0.5% CMC‐Na and 3% DMSO at the concentration of 100 mg mL^−1 to achieve an acute toxicity dose of 500 mg kg^−1. In the subacute toxicity experiment, the test group received 50 mg kg^−1 of C5N17B orally, with another group serving as a control. The experimental group and control group each consist of six mice, with an equal distribution of three males and three females.

in vitro = settings: human

For `Cc1cncc(C(=O)N2C[C@H]3CC[C@@H](C2)N3[C@H](c2cccc(F)c2)c2cn(CCc3ccsc3)nn2)c1` [Compound C5N17B], the IC50 (SARS‐CoV‐2 M^pro [1]) was 120 nM, the inhibition at 5 µM (SARS‐CoV‐2 M^pro [1]; 5 μM, read-out: Inhibitionrate at @5μM) was 99.6% and the “fold stronger enzyme inhibitory activity than C5N17A” value (SARS‐CoV‐2 M^pro [1]; IC50 ratio) was 27 fold. The Ki (SARS‐CoV‐2 M^pro [2]) was 26.6 nM, the EC50 ([3]; Severe acute respiratory syndrome coronavirus 2, Calu-3, Calu‐3, read-out: EC50 ± SD, SARS‐CoV‐2 Wild‐type) was 119 ± 11 nM and the EC50 ([3]; Severe acute respiratory syndrome coronavirus 2, Calu-3, Calu‐3 cells, racemate, enantiomers and […] measured in the same system, read-out: EC50, anti‐SARS‐CoV‐2 activity in Calu‐3 cells (Figure 3B)) was 78 nM. The EC50 [4] was 135 ± 3 nM, the EC50 (HCoV‐NL63) was greater than 100000 nM and the “SARS‐CoV‐2 S and N proteins in virus‐infected cells” value [5] was “dose‐dependent reduction”. The “reduction in viral RNA” value (SARS‐CoV‐2 viral RNA) was “exceeded 3 log orders”, the “decrease in viral RNA copy number compared to 10.0 µM nirmatrelvir” value (SARS‐CoV‐2 viral RNA; 0.041 µM) was 20 fold and the “body weight compared to the control group, acute toxicity” value (Kunming mice [6]; 500 mg kg^−1, 7 days) was “no significant changes in body weight”. The “fatalities or abnormal behavior, acute toxicity” value (Kunming mice [6]; oral dose of 500 mg kg^−1, Kunming mice) was “No fatalities or abnormal behavior”, the “body weight compared to the control group, subacute toxicity” value (Kunming mice [7]; 50 mg kg^−1, 15 days) was “no significant changes in body weight” and the “examination of vital organs, hematoxylin and eosin‐stained slices” value (Kunming mice [7]; heart, liver, spleen, lung, kidney, subacute toxicity study) was “no significant pathological abnormalities”. The “fatalities or abnormal behavior, subacute toxicity” value (Kunming mice [7]; oral 50 mg kg^−1, Kunming mice) was “No fatalities or abnormal behavior”, the CC50 (in vitro) was greater than 100000 nM and the CC50 at 2 day (in vitro; CC50 (Table 3), Calu‐3 cells) was greater than 100000 nM. The CC50 at 2 day (in vitro; CC50, Calu‐3 cells, MTT assay) was greater than 100000 nM and the CC50 at 2 day (in vitro; CC50, column 9, after the Calu-3 EC50 columns) was greater than 100000 nM.
